Structures can show the parent of a compound that is named as a salt. Where two headings read alike, the source gives them in different places.
Key:
P. falciparum W2 = assay: Testing of compounds against P. falciparum strain W2; assay type: cell-based; settings: Plasmodium falciparum
Source text: (§1) Parasitic Lethality: The geldanamycin derivatives were subjected to further testing for lethality to the P. falciparum parasite itself. IC50 values were then obtained as illustrated in Table 1 in Example 3. Samples of the literature compound 17-N-allyl-17-demethoxygeldanamycin was synthesized and tested for killing of parasites. Preferably the drugs are selective for parasitic hsp90 homologs over human hsp90 and have minimal human toxicity. Geldanamycin derivatives of this type have potential for being novel drugs in the treatment of parasitic diseases. The medical community will be able to use these new anti-infective medications alone or in combination with other anti-infective medications. For example, the geldanamycin derivatives of the present invention can be used in combination with chloroquine, since geldanamycin and chloroquine are synergistic inhibitors of Plasmodium falciparum growth as described in Kumar et al. Malaria Journal 2:30 (2003).
(§2) Both parasite strains are chloroquine and pyrimethamine resistant and TM91C235 is also mefloquine resistant.

P. falciparum TM91C235 = assay: Testing of compounds against P. falciparum strain TM91C235; assay type: cell-based; settings: Plasmodium falciparum
Source text: as §1, §2

[1] = target strain W2 (chloroquine and pyrimethamine resistant), read-out: IC50
[2] = target strain W2 (chloroquine and pyrimethamine resistant), read-out: IC90
[3] = target strain TM91C235 (chloroquine, pyrimethamine and mefloquine resistant), read-out: IC50
[4] = target strain TM91C235 (chloroquine, pyrimethamine and mefloquine resistant), read-out: IC90

Row | IC50 (P. falciparum W2; [1]) | IC90 (P. falciparum W2; [2]) | IC50 (P. falciparum TM91C235; [3]) | IC90 (P. falciparum TM91C235; [4]) | Structure (SMILES) | IC50 (P. falciparum W2; W2) | IC90 (P. falciparum W2; W2) | IC50 (P. falciparum TM91C235) | IC90 (P. falciparum TM91C235)
1 | – | – | – | – | CCN(CC)CCCC(C)Nc1ccnc2cc(Cl)ccc12 (stereo not drawn) [Chloroquine, reference compound] | 0.0297 µg/mL | 0.0378 µg/mL | 0.125 µg/mL | 0.16 µg/mL
2 | 0.65 µg/mL | 1.79 µg/mL | 1.03 µg/mL | 2.53 µg/mL | CO[C@H]1/C=C\C=C(/C)C(=O)NC2=CC(=O)C(N3CCC3)=C(C[C@@H](C)C[C@H](OC)[C@H](OC(=O)CCCN)[C@@H](C)/C=C(\C)[C@@H]1OC(N)=O)C2=O [Compound A, 11-O-(4-Aminobutyryl)-17-(1-azetidinyl)-17-demethoxygeldanamycin trifluoroacetate] | – | – | – | –
3 | 0.786 µg/mL | 2.73 µg/mL | 2.71 µg/mL | 4.02 µg/mL | CCCC(=O)O[C@H]1/C(C)=C/[C@H](C)[C@@H](O)[C@@H](OC)C[C@H](C)CC2=C(N3CCC3)C(=O)C=C(NC(=O)/C(C)=C/C=C\[C@@H]1OC)C2=O [Compound B, 17-(1-Azetidinyl)-7-butyryl-7-decarbamyl-17-demethoxygeldanamycin] | – | – | – | –
4 | 0.875 µg/mL | 3.06 µg/mL | 2.64 µg/mL | 3.95 µg/mL | CO[C@H]1/C=C\C=C(/C)C(=O)NC2=CC(=O)C(N3CCC3)=C(C[C@@H](C)C[C@H](OC)[C@H](O)[C@@H](C)/C=C(\C)[C@@H]1OC(=O)C1CC1)C2=O [Compound C, 17-(1-Azetidinyl)-7-(cyclopropanyl)carbonyl-7-decarbamyl-17-demethoxygeldanamycin] | – | – | – | –
5 | 0.958 µg/mL | 6.18 µg/mL | 4.04 µg/mL | 8.41 µg/mL | CO[C@H]1/C=C\C=C(/C)C(=O)NC2=CC(=O)C(N3CCC3)=C(C[C@@H](C)C[C@H](OC)[C@H](O)[C@@H](C)/C=C(\C)[C@@H]1O)C2=O [Compound D, 17-(1-Azetidinyl)-7-decarbamyl-17-demethoxygeldanamycin] | – | – | – | –
6 | – | – | – | – | CO[C@H]1/C=C\C=C(/C)C(=O)NC2=CC(=O)C(N3CCC3)=C(C[C@@H](C)C[C@H](OC)[C@H](O)[C@@H](C)/C=C(\C)[C@@H]1OC(=O)c1ccccc1)C2=O [Compound E, 17-(1-Azetidinyl)-7-benzoyl-7-decarbamyl-17-demethoxygeldanamycin] | 1.26 µg/mL | 5.43 µg/mL | 4.29 µg/mL | 6.07 µg/mL
7 | 0.909 µg/mL | 3.74 µg/mL | 3.03 µg/mL | 5.54 µg/mL | CCC(=O)O[C@H]1/C(C)=C/[C@H](C)[C@@H](O)[C@@H](OC)C[C@H](C)CC2=C(N3CCC3)C(=O)C=C(NC(=O)/C(C)=C/C=C\[C@@H]1OC)C2=O [Compound F, 17-(1-Azetidinyl)-7-decarbamyl-17-demethoxy-7-propionylgeldanamycin] | – | – | – | –
8 | 0.00163 µg/mL | 0.00409 µg/mL | 0.0138 µg/mL | 0.0291 µg/mL | OC(c1cc(C(F)(F)F)nc2c(C(F)(F)F)cccc12)C1CCCCN1 (stereo not drawn) [Mefloquine, reference compound] | – | – | – | –

Row | Structure (SMILES) | IC50 (P. falciparum W2; [1]) | IC90 (P. falciparum W2; [2]) | IC50 (P. falciparum TM91C235; [3]) | IC90 (P. falciparum TM91C235; [4]) | IC50 (P. falciparum W2; W2) | IC90 (P. falciparum W2; W2) | IC50 (P. falciparum TM91C235) | IC90 (P. falciparum TM91C235)
9 | CO[C@H]1/C=C\C=C(/C)C(=O)NC2=CC(=O)C(N3CCC3)=C(C[C@@H](C)C[C@H](OC)[C@H](O)[C@@H](C)/C=C(\C)[C@@H]1OC(N)=O)C2=O [Compound G, 17-(1-Azetidinyl)-17-demethoxygeldanamycin] | 0.0683 µg/mL | 0.208 µg/mL | 0.169 µg/mL | 0.346 µg/mL | – | – | – | –

Source: US20070207992A1, “Geldanamycin derivatives and method of use thereof” (Board of Trustees of Michigan State University, priority 2006, published 2007)
